Measured values from ChEMBL document CHEMBL1201862, “PubChem BioAssay data set” (2004).
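Test compounds were applied to cells in 96-well plates for 48 hours at 5 doses. GI50 marks 50% less growth.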 Calls of active or inactive are those of the source. Cut-off read from the data, not from the text of the source: active = GI50 up to about 1.1 µM and inactive = higher.

Key:
Assay in all cases: growth of human tumour cells (NCI), 48 h
M14 = system: M14
SN12C = system: SN12C
RPMI-8226 = system: RPMI-8226
MDA-N = system: MDA-N
PC-3 = system: PC-3
OVCAR-5 = system: OVCAR-5
SK-OV-3 = system: SK-OV-3
MOLT-4 = system: MOLT-4
UO-31 = system: UO-31
OVCAR-8 = system: OVCAR-8
NCI-H460 = system: NCI-H460
SR = system: SR
SNB-19 = system: SNB-19
TK-10 = system: TK-10
NCI-H23 = system: NCI-H23
HT-29 = system: HT-29
SF-295 = system: SF-295
MDA-MB-435 = system: MDA-MB-435
EKVX = system: EKVX
CAKI-1 = system: CAKI-1
A549 = system: A549
NCI/ADR-RES = system: NCI/ADR-RES
IGROV-1 = system: IGROV-1
SNB-75 = system: SNB-75
SW-620 = system: SW-620
SK-MEL-5 = system: SK-MEL-5
SK-MEL-2 = system: SK-MEL-2
786-0 = system: 786-0
HCT-116 = system: HCT-116
LOX IMVI = system: LOX IMVI
Malme-3M = system: Malme-3M
SF-539 = system: SF-539
MDA-MB-231 = system: MDA-MB-231
ACHN = system: ACHN
HOP-92 = system: HOP-92
SF-268 = system: SF-268
HCT-15 = system: HCT-15
SK-MEL-28 = system: SK-MEL-28
U-251 = system: U-251
HCC 2998 = system: HCC 2998
OVCAR-3 = system: OVCAR-3
COLO 205 = system: COLO 205
NCI-H226 = system: NCI-H226
UACC-257 = system: UACC-257
KM12 = system: KM12
MCF7 = system: MCF7
DU-145 = system: DU-145
K562 = system: K562
UACC-62 = system: UACC-62
NCI-H522 = system: NCI-H522
CCRF-CEM = system: CCRF-CEM
OVCAR-4 = system: OVCAR-4
HOP-62 = system: HOP-62
HL-60 = system: HL-60
RXF 393 = system: RXF 393
Hs-578T = system: Hs-578T

O=C1C(Br)=CC2(C=C1Br)CCNC1=C2C(=O)c2cccnc2C1=O
GI50 (M14): 8.65 µM (inactive)
GI50 (SN12C): 12.5 µM (inactive)
GI50 (RPMI-8226): 8.93 µM (inactive)
GI50 (MDA-N): 1.77 µM (inactive)
GI50 (PC-3): 13.4 µM (inactive)
GI50 (OVCAR-5): 17.4 µM (inactive)
GI50 (SK-OV-3): 16.9 µM (inactive)
GI50 (MOLT-4): 5.69 µM (inactive)
GI50 (UO-31): 17.5 µM (inactive)
GI50 (OVCAR-8): 15.8 µM (inactive)
GI50 (NCI-H460): 4.13 µM (inactive)
GI50 (SR): 2.93 µM (inactive)
GI50 (SNB-19): 7.23 µM (inactive)
GI50 (TK-10): 19.8 µM (inactive)
GI50 (NCI-H23): 4.07 µM (inactive)
GI50 (HT-29): 18.2 µM (inactive)
GI50 (SF-295): 8.75 µM (inactive)
GI50 (MDA-MB-435): 1.89 µM (inactive)
GI50 (EKVX): 15 µM (inactive)
GI50 (CAKI-1): 17.4 µM (inactive)
GI50 (A549): 14.8 µM (inactive)
GI50 (NCI/ADR-RES): 20.8 µM (inactive)
GI50 (IGROV-1): 9.18 µM (inactive)
GI50 (SNB-75): 10.7 µM (inactive)
GI50 (SW-620): 11.5 µM (inactive)
GI50 (SK-MEL-5): 3.77 µM (inactive)
GI50 (SK-MEL-2): 2.69 µM (inactive)
GI50 (786-0): 15.3 µM (inactive)
GI50 (HCT-116): 13.1 µM (inactive)
GI50 (LOX IMVI): 5.48 µM (inactive)
GI50 (Malme-3M): 9.46 µM (inactive)
GI50 (SF-539): 8.99 µM (inactive)
GI50 (MDA-MB-231): 14.1 µM (inactive)
GI50 (ACHN): 17 µM (inactive)
GI50 (HOP-92): 16 µM (inactive)
GI50 (SF-268): 13.3 µM (inactive)
GI50 (HCT-15): 5.14 µM
GI50 (SK-MEL-28): 14.2 µM (inactive)
GI50 (U-251): 17.6 µM (inactive)
GI50 (HCC 2998): 18 µM (inactive)
GI50 (OVCAR-3): 6.01 µM (inactive)
GI50 (COLO 205): 16.4 µM (inactive)
GI50 (NCI-H226): 16.6 µM (inactive)
GI50 (UACC-257): 8.36 µM (inactive)
GI50 (KM12): 16.1 µM (inactive)
GI50 (MCF7): 13.8 µM (inactive)
GI50 (DU-145): 11.4 µM (inactive)
GI50 (K562): 2.44 µM (inactive)
GI50 (UACC-62): 3.89 µM (inactive)
GI50 (NCI-H522): 4.65 µM (inactive)
GI50 (CCRF-CEM): 6.22 µM (inactive)
GI50 (OVCAR-4): 17.2 µM (inactive)
GI50 (HOP-62): 8.93 µM (inactive)
GI50 (HL-60): 3.49 µM (inactive)
GI50 (RXF 393): 4.92 µM (inactive)
GI50 (Hs-578T): 5.42 µM (inactive)
